The values below come from publication PMC4809498, “Artonin E Induces Apoptosis via Mitochondrial Dysregulation in SKOV-3 Ovarian Cancer Cells” (PLoS ONE, 2016).

SMILES strings stand for the structures. In brackets after ≈: the same amount, converted by molar mass.

One assay relates to SKOV-3 cells. In words: DNA fragmentation (laddering) assay. The assay is classed as cell-based, human. Particulars: SKOV-3, 8 μg/mL, 24, 48, 72 h, 1.5% agarose gel. As to the method: SKOV-3 cells were treated with artonin E at different time points, and harvested by adding trypsin to promote detachment. The detached cells were spun down and washed two times with cold PBS. The DNA from cells in the suspension was extracted using the suicide Track^TM DNA ladder isolation kit (Calbiochem, EMD Bioscience, Germany). The cells were then lysed by mixing 55 μL of TE (Tris and EDTA) lysis buffer and 20 μL of enzyme A (RNase A). The resulting mixture was incubated at 37°C for 1 h. Subsequently, 25 μL of enzyme B (proteinase K) was added and the lysate was kept in a water bath at 50°C overnight. Following incubation, 2 μL of Pellet Paint, 60 μL of 3M sodium acetate, and 662 μL of 2-propanol were added to the lysate, and the solution was briefly mixed by inversion and incubated at room temperature for 2 min. The DNA was then precipitated by centrifugation of the samples at 16,000×g for 5 min. The supernatant was removed and the fresh pellets were rinsed two times with 70% and 100% ice-cold ethanol. The pellets were air dried at room temperature for a few minutes to discard the ethanol and resuspended with 50 μL of DNA resuspension buffer. The prepared DNA ladder samples were loaded onto a 1.5% gel electrophoresis set up and run at 50 constant volts for 3 h. […]

In another assay the test system is T1074 cells. In words: MTT cell viability assay, T1074. The assay is classed as cell-based, human. Particulars: Homo sapiens. The method, then: Metastatic ovarian adenocarcinoma (SKOV-3) and normal Chinese hamster ovary (CHO) cell lines were originally obtained from the American Type Culture Collection (ATCC; Manassas, VA). SKOV-3 cells were cultured in McCoy’s 5A medium and CHO cells were cultured in F12K medium. A human periodontal ligament fibroblast cell line was purchased from Lonza, USA and maintained in stroma cell basal medium. T1074 (normal immortalized human ovarian surface epithelial cell line) was originally purchased from Applied Biological Materials (abm®) Canada and cultured in Prigrow 1 medium.
The inhibitory effects of artonin E and two positive controls paclitaxel and carboplatin were examined by MTT assay. Cells at a density of 5×10^3cells/well were placed in a 96-well plate and left for 24 h to attach. The attached cells were exposed to artonin E, paclitaxel, and carboplatin at different concentrations and incubated for 24, 48, and 72 h. Subsequently, 20 μL of 5 mg/mL MTT solution was added after drug treatment and the resulting mixture was incubated for 4 h to form purple formazan. Afterward, 100 μL of dimethyl sulfoxide (DMSO) was transferred into each well to dissolve the purple formazan, and results were measured using a microplate reader (Tecan Infinite M 200 PRO, Männedorf, Switzerland) at an absorbance of 570 nm. The half-maximal concentrations that caused cell growth inhibition (IC50 values) were obtained from the MTT viability growth curve.
Background: Formazan colour is commonly taken as a measure of viable cells.

In the case of `CC(C)=CCc1c(-c2cc(O)c(O)cc2O)oc2c3c(cc(O)c2c1=O)OC(C)(C)C=C3` [Artonin E, artonin E], in the assay on SKOV-3 cells, the “DNA fragmentation (ladder pattern)” value is listed as “distinctly observed”. For the same molecule, the results for the IC50 with T1074 cells (24 h treatment), in the assay with T1074 cells (48 h treatment) and with T1074 cells (72 h treatment) were 44.8 ± 0.76 µg/mL (≈ 103 µM), 37.5 ± 0.53 µg/mL (≈ 85.9 µM) and 32.5 ± 0.5 µg/mL (≈ 74.5 µM), respectively.
